Each structure is given as a SMILES string. Where two headings read alike, the source gives them in different places.

Here are results for 13 molecules from patent US11161830B2, “4-pyridone compound or salt thereof, and pharmaceutical composition and formulation including same” (priority 2017, dated 2021).

One assay deals with HBV. The assay can be described thus: Test Example 1-1: anti-HBV assay in HepG2.2.15 cells (test solution 200 μL/well). It is filed as cell-based, hepatitis B virus. The conditions noted are these: culture supernatant. The protocol:
Using HepG2.2.15 cells (Proc. Natl. Acad. Sci. USA, 84, 1005-1009, 1987) which have an HBV genome introduced into a hepatoblastoma cell line, HepG2, and persistently produce a virus, the anti-HBV activity of the representative compounds was evaluated in the following procedure.
(§1) The following was used as a medium:
DMEM/F-12, GlutaMAX (manufactured by Invitrogen)+5 μg/mL insulin (manufactured by Wako)+1% penicillin/streptomycin (manufactured by Sigma)+10 mmol/L HEPES (manufactured by Sigma)+50 μmol/L hydrocortisone (manufactured by Sigma)+10% FBS
A mixture of a test compound with dimethyl sulfoxide (DMSO) was further added to the medium to obtain a final concentration of DMSO of 0.25% (v/v), and thus, test solutions containing the test compound at various concentrations were prepared. In addition, a test solution obtained by adding DMSO alone to the medium to obtain a final concentration of 0.25% (v/v) was prepared as a control without addition of a drug.
(1) The HepG2.2.15 cells were suspended in the medium to prepare a. HepG2.2.15 cell suspension at 4×10^5 cells/mL. The suspension was seeded in a 96-well microtiter plate (100 μL/well) and the plate was incubated in a 5% CO2 incubator at 37° C. for 2 days.
(2) The culture supernatant was removed and the cells were washed twice with PBS (−) (100 μL/well).
(3) The test solution (200 μL/well) was added to the plate of (2) and the plate was incubated in a 5% CO2 incubator at 37° C. for 4 days.
(4) The culture supernatant was removed, the test solution (200 μL/well) was added again to the plate, and the plate was incubated in a 5% CO2 incubator at 37° C. for 3 days.
(5) The culture supernatant was collected and treated with a mixture of Buffer AL (manufactured by QIAGEN) and Proteinase K (manufactured by Invitrogen). The amount of DNA of HBV (HBV-DNA) in the obtained solution was absolutely quantified by a real-time PCR method. In addition, HBsAg (hepatitis B surface antigen) in the culture supernatant was absolutely quantified by chemiluminescent enzyme immunoassay using Lumipulse (registered trademark) HBsAg-HQ (manufactured by Fujirebio Inc.). The relative viral load (%) of a well with the compound added to a well without the compound added was calculated. An IC50 of the compound was calculated using a FORECAST function (linear regression method) of Microsoft Office Excel 2007 by plotting the logarithm of the concentration against the relative viral load as a real number.
The IC50 of HBV-DNA was defined as a concentration (or a logarithm dilution of the culture supernatant) of the compound, in which the amount of HBV-DNA is reduced by 50% as compared a control without the compound added.
In addition, the IC50 of HBsAg was defined as a concentration (or a logarithm dilution of the culture supernatant) of the compound, in which the amount of HBsAg is reduced by 50% as compared a control without the compound added.

The test system of a further assay is HBV (genotype AeUS). The assay is described as follows: Test Example 2-1: anti-HBV assay in PXB-cells (fresh human hepatocytes). It is filed as cell-based, hepatitis B virus. Particulars: Hepatitis B virus, Hepatocyte, PXB-cells infected with HBV genotype AeUS, culture supernatant on day 32 post infection. The procedure: Using fresh human hepatocytes (PXB-cells, manufactured by PhenixBio Co., Ltd.) collected from a PXB mouse (a chimeric mouse with human hepatocytes), the anti-HBV activity of the representative compounds was evaluated in the following procedure.
as §1
DMEM (manufactured by Sigma)+0.25 μg/mL insulin (manufactured by Wako)+1% penicillin/streptomycin. (manufactured by Sigma)+20 mmol/L HEPES (manufactured by Sigma)+15 μg/mL L-proline (manufactured by Sigma)+50 nmol/L dexamethasone (manufactured by Sigma)+5 ng/mL EGF (manufactured by Peprotech)+0.1 mmol/L ascorbic acid 2-phosphate (manufactured by Wako)+10% FBS+2% DMSO
Each of the test compounds) was further added to the medium to prepare a test solution containing each of the test compounds at various concentrations.
(1) PXB-cells seeded at a seeding density of 2.1×10^5 cells/cm^2 in a 96-well microliter plate were incubated in a 5% CO2 incubator at 37° C. until a day on which the cells were infected.
(2) HBV (genotype AeUS) derived from a PXB mouse serum was suspended in the medium containing 4% PEG-8000, and added to the plate of (1) at about 10 copies/cell such that the PXB cells were infected (100 μL/well), and the plate was incubated in a 5% CO2 incubator at 37° C. for 1 day.
(3) The culture supernatant on day 1 post infection was removed and the cells were washed three times with DMEM containing 10% FBS and 1% penicillin/streptomycin. Then, the medium was added to the plate (100 μL/well) and the plate was incubated in a 5% CO2 incubator at 37° C. for 1 day.
(4) The culture supernatant on day 2 post infection was removed and the cells were washed three times with DMEM containing 10% FBS and 1% penicillin/streptomycin. Then, the medium was added to the plate (100 μL/well) and the plate was incubated in a 5% CO2 incubator at 37° C. for 5 days.
(5) The culture supernatant on day 7 post infection was removed, the medium was added to the plate (100 μL/well), and the plate was incubated in a 5% CO2 incubator at 37° C. for 5 days.
(6) The culture supernatant on day 12 post infection was removed, the medium was added to the plate (100 μL/well), and the plate was incubated in a 5% CO2 incubator at 37° C. for 5 days.
(7) The culture supernatant on day 17 post infection was removed, the test solution was added to the plate (100 μL/well), and the plate was incubated in a 5% CO2 incubator at 37° C. for 5 days. As a control without the compound added, the medium was added to the plate (100 μL/well) and the plate was incubated in a 5% CO2 incubator at 37° C. for 5 days.
(8) The culture supernatant on day 22 post infection was removed, the test solution was added to the plate (100 μL/well), and the plate was incubated in a 5% CO2 incubator at 37° C. for 5 days. As a control without the compound added, the medium was added to the plate (100 μL/well) and the plate was incubated in a 5% CO2 incubator at 37° C. for 5 days.
(9) The culture supernatant on day 27 post infection was removed, the test solution was added to the plate (100 μL/well), and the plate was incubated in a 5% CO2 incubator at 37° C. for 5 days. As a control without the compound added, the medium was added to the plate (100 μL/well) and the plate was incubated in a 5% CO2 incubator at 37° C. for 5 days.
(10) The culture supernatant on day 32 post infection was collected.
(11) The collected culture supernatant on day 32 post infection was purified with a QIAamp (registered trademark) DNA Blood Mini Kit (manufactured by QIAGEN). The amount of HBV-DNA in the obtained solution was absolutely quantified by a real-time PCR method. In addition, the amount of HBsAg in the culture supernatant was absolutely quantified by chemiluminescent enzyme immunoassay using Lumipulse (registered trademark) HBsAg-HQ (manufactured by Fujirebio Inc.). A relative viral load (%) with respect to a control without the compound added was each calculated. […]

Setting [1] is: Hepatitis B virus, read-out: IC50 HBV-DNA.
The mark [2] stands for this setting: Hepatitis B virus, read-out: IC50 HBsAg.

For the molecule `Cc1nc2ccc(-n3cc(C(=O)O)c(=O)cc3-c3ccc(N(C)C)cc3)cc2s1` [Example 1, 6-(4-(dimethylamino)phenyl)-1-(2-methylbenzo[d]thiazol-6-yl)-4-oxo-1,4-dihydropyridine-3-carboxylic acid], the IC50 in the assay on HBV (setting [1]) and in the assay with HBV (setting [2]) was 120 nM each time.

Regarding `COc1nc2ccc(-n3cc(C(=O)O)c(=O)cc3-c3ccc(N4CCCC4)cc3)cc2s1` [Example 3-5, 1-(2-methoxybenzo[d]thiazol-6-yl)-4-oxo-6-(4-(pyrrolidin-1-yl)phenyl)-1,4-dihydropyridine-3-carboxylic acid], the IC50 (usually the point on the concentration scale where inhibition reaches its midpoint) with HBV (setting [1]) turned out to be 4 nM; in the assay on HBV (setting [2]), 8 nM.

For the molecule `COCCN(CCOC)c1nc2ccc(-n3cc(C(=O)O)c(=O)cc3-c3ccc(N4CCCC4)cc3)cc2s1` [Example 3-6, 1-(2-(bis(2-methoxyethyl)amino)benzo[d]thiazol-6-yl)-4-oxo-6-(4-(pyrrolidin-1-yl)phenyl)-1,4-dihydropyridine-3-carboxylic acid], the results for the half-inhibitory concentration (IC50) with HBV (setting [1]) and with HBV (setting [2]) were 3.9 nM and 3 nM, respectively.

As to `CCN1CCN(c2nc3ccc(-n4cc(C(=O)O)c(=O)cc4-c4ccc(N5CCCC5)cc4)cc3s2)CC1` [Example 3-9, 1-(2-(4-ethylpiperazin-1-yl)benzo[d]thiazol-6-yl)-4-oxo-6-(4-(pyrrolidin-1-yl)phenyl)-1,4-dihydropyridine-3-carboxylic acid], the values for the IC50 in the assay with HBV (setting [1]) and with HBV (setting [2]) were 3.5 nM and 6 nM, respectively.

As for `O=C(O)c1cn(-c2ccc3nc(NCc4ccccn4)sc3c2)c(-c2ccc(N3CCCC3)cc2)cc1=O` [Example 3-12, 4-oxo-1-(2-((pyridin-2-ylmethyl)amino)benzo[d]thiazol-6-yl)-6-(4-(pyrrolidin-1-yl)phenyl)-1,4-dihydropyridine-3-carboxylic acid], the figures for the IC50 in the assay on HBV (setting [1]) and in the assay on HBV (setting [2]) were 2.9 nM and 2.4 nM, respectively.

For the molecule `COCCN1CCN(c2nc3ccc(-n4cc(C(=O)O)c(=O)cc4-c4ccc(N5CCCC5)cc4)cc3s2)CC1` [Example 3-14, 1-(2-(4-(2-methoxyethyl)piperazin-1-yl)benzo[d]thiazol-6-yl)-4-oxo-6-(4-(pyrrolidin-1-yl)phenyl)-1,4-dihydropyridine-3-carboxylic acid], the IC50 in the assay on HBV (genotype AeUS) (read-out: IC50 HBV-DNA) was determined as 24 nM; in the assay with HBV (genotype AeUS) (read-out: IC50 HBsAg) it was 89 nM.

As for `COc1cc(-c2cc(=O)c(C(=O)O)cn2-c2ccc3nc(C)sc3c2)ccc1N1CCCC1` [Example 4-1, 6-(3-methoxy-4-(pyrrolidin-1-yl)phenyl-1)-(2-methylbenzo[d]thiazol-6-yl)-4-oxo-1,4-dihydropyridine-3-carboxylic acid], the IC50 with HBV (read-out: IC50 HBV-DNA) and in the assay on HBV (read-out: IC50 HBsAg) was 18 nM each time.

With `COc1cc(-c2cc(=O)c(C(=O)O)cn2-c2ccc3nc(N4CCOCC4)sc3c2)ccc1N1CCCC1` [Example 4-2, 6-(3-methoxy-4-(pyrrolidin-1-yl)phenyl)-1-(2-morpholinobenzo[d]thiazol-6-yl)-4-oxo-1,4-dihydropyridine-3-carboxylic acid], the IC50 with HBV (setting [1]) is 10.9 nM; in the assay on HBV (setting [2]), 5.3 nM.

Turning to `O=C(O)c1cn(-c2ccc3nc(N4CCOCC4)sc3c2)c(-c2ccc(N3CCCC3)c(Br)c2)cc1=O` [Example 5-2, 6-(3-bromo-4-(pyrrolidin-1-yl)phenyl)-1-(2-morpholinobenzo[d]thiazol-6-yl)-4-oxo-1,4-dihydropyridine-3-carboxylic acid], the values for the IC50 in the assay on HBV (setting [1]) and with HBV (setting [2]) were 1.2 nM and 1.6 nM, respectively.

As to `COCCN(CCOC)c1nc2ccc(-n3cc(C(=O)O)c(=O)cc3-c3ccc(N4CCCC4)c(Br)c3)cc2s1` [Example 5-3, 1-(2-(bis(2-methoxyethyl)amino)benzo[d]thiazol-6-yl)-6-(3-bromo-4-(pyrrolidin-1-yl)phenyl)-4-oxo-1,4-dihydropyridine-3-carboxylic acid], the values for the IC50 in the assay with HBV (genotype AeUS) (read-out: IC50 HBV-DNA) and in the assay with HBV (genotype AeUS) (read-out: IC50 HBsAg) were 25 nM and 52 nM, respectively.

For the molecule `O=C(O)c1cn(-c2ccc3nc(N4CCOCC4)sc3c2)c(-c2ccc(N3CCCC3)c(Cl)c2)cc1=O` [Example 6-1, 6-(3-chloro-4-(pyrrolidin-1-yl)phenyl)-1-(2-morpholinebenzo[d]thiazol-6-yl)-4-oxo-1,4-dihydropyridine-3-carboxylic acid], the values for the IC50 in the assay on HBV (read-out: IC50 HBV-DNA) and in the assay with HBV (read-out: IC50 HBsAg) were 10 nM and 3.8 nM, respectively.

For the molecule `Cc1nc2ccc(-n3cc(C(=O)O)c(=O)cc3-c3ccc(N4CC[C@@H](OCc5ccc(F)cc5)C4)cc3)cc2s1` [Example 8, (R)-6-(4-(3-((4-Fluorobenzyl)oxy)pyrrolidin-1-yl)phenyl)-1-(2-methylbenzo[d]thiazol-6-yl)-4-oxo-1,4-dihydropyridine-3-carboxylic acid], the IC50 worked out at 20 nM with HBV (setting [1]) and 19 nM in the assay with HBV (setting [2]).

In the case of `O=C(O)c1cn(-c2ccc3ncsc3c2)c(-c2ccc(-c3ccc(F)cc3)s2)cc1=O` [Example 14, 1-(Benzo[d]thiazol-6-yl)-6-(5-(4-fluorophenyl)thiophen-2-yl)-4-oxo-1,4-dihydropyridine-3-carboxylic acid], the IC50 in the assay with HBV (setting [1]) is 100 nM; with HBV (setting [2]), 91 nM.
